Results on 4 compounds are retold here after publication PMC11053944, “FRET Assays for the Identification of C. albicans HSP90-Sba1 and Human HSP90α-p23 Binding Inhibitors” (Pharmaceuticals, 2024).

Experiment [1] concerns the target T1, C. albicans HSP90-mNeonGreen (Candida albicans, UniProt P46598).
T1 construct: made in house; host or cells: E. coli BL21(DE3)
The experiment can be described thus: Microscale thermophoresis, AMP-PNP binding. The note with it: 50 nM HSP90-mNeonGreen, 25 °C, error of the fit; read-out: Kd, binding to C. albicans HSP90-mNeonGreen (MST). As to the method: HSP90-mNeonGreen (C. albicans) or mNeonGreen serving as the negative control was adjusted to 100 nM with Sba1 buffer (40 mM HEPES/KOH pH 7.5, 20 mM KCl). The ligand AMP-PNP was dissolved in 2x reaction buffer (40 mM HEPES/KOH pH 7.5, 20 mM KCl, 10 mM MgCl2, 40 mM Na2MoO4, 0.2% Triton-X 100), and a series of 16 1:1 dilutions was prepared using the same buffer, producing ligand concentrations ranging from […] to […]. For the measurement, each ligand dilution was mixed with one volume of HSP90-mNeonGreen or mNeonGreen, which led to a final concentration of 50 nM and final ligand concentrations ranging from 153 nM to […]. After 5 min incubation at room temperature, the samples were loaded into Monolith NT.115 Capillaries (NanoTemper Technologies, Munich, Germany). MST was measured using a Monolith NT.115 at an ambient temperature of 25 °C. Instrument parameters were adjusted to 35% LED power and a high MST power of 80%. Data of three independently pipetted measurements were analyzed (MO.Affinity Analysis software version 2.1.3, NanoTemper Technologies, Munich, Germany) using the signal from an MST-on time of 30 s.
Background: MST reads how a fluorescent partner responds to local heating, with and without ligand.

A further experiment addresses human HSP90β. Further details: method as in earlier work. Conditions: 25 °C; ref 37 (McLaughlin et al.); read-out: Kd, binding to human HSP90β; cited from earlier work.
The next experiment addresses human HSP90β–p23 complex. On the set-up: method as in PMID 16403413. The note with it: read-out: Kd, binding to human HSP90β–p23 complex; cited from earlier work.
Experiment [2] deals with T2, human HSP90α-mNeonGreen–p23-mScarlet-I binding (Homo sapiens, UniProt P07900, E47A).
T2 construct: made in house; host or cells: E. coli Rosetta2(DE3) pLysS
The experiment can be described thus: FRET characterization of model inhibitors and ATP on human HSP90α-p23 binding. On the procedure: (§1) In this investigation, 1 µM HSP90-mNeonGreen was incubated with 2 µM Sba1-mScarlet-I in reaction buffer containing 5 mM ATP either alone (UC) or with the addition of 20 µM Sba1. As a negative control, samples containing 20 µM bovine serum albumin (BSA) were used.
(§2) FRET experiments were carried out in 384-well microtiter plates (Art. No. 3766 Corning, NY, USA, or Art. No. 781906, Greiner Bio-One GmbH, Frickenhausen, Germany) containing a final volume of 20 µL and measured with a microplate reader Infinite M200Pro (Tecan, Männedorf, Switzerland). The fluorescence was measured in three channels: excitation (ex.): 488 nm/emission (em.): 525 nm (mNeonGreen fluorescence), ex.: 561 nm/em.: 610 nm (mScarlet-I fluorescence) and the FRET channel ex.: 488 nm/em.: 610 nm. The excitation and emission bandwidths were set to 9 and 20 nm, respectively. Experiments for the determination of the equilibrium dissociation constants were performed with a filter-based microplate reader Infinite F200Pro (Tecan, Männedorf, Switzerland). The fluorescence was measured in three channels using the following filters: ex.: 485 ± 20 nm/em.: 535 ± 20 nm (mNeonGreen channel), ex.: 535 ± 20 nm/em.: 612 ± 10 nm (mScarlet-I channel) and the FRET channel ex.: 485 ± 20 nm/em.: 612 ± 10 nm. FRET emission (EmFRET) was calculated according to Song et al. 2011 [81]:(1) EmFRET=FLDA−x×FLDD−(y×FLAA) where FLDA is the fluorescence signal of the FRET channel and FLDD and FLAA are fluorescence signals from the mNeonGreen and mScarlet-I channels, respectively. The correction factors x and y were calculated as follows:(2) x=FLDA/FLDD for samples containing only the donor fluorophore or fluorescent fusion proteins with mNeonGreen and (3) y=FLDA/FLAA for samples containing only the acceptor fluorophore or fluorescent fusion proteins with mScarlet-I in the same concentration as samples containing both the donor and acceptor.
All experiments were carried out in reaction buffer (40 mM HEPES/KOH pH 7.5, 20 mM KCl, 5 mM MgCl2, 20 mM Na2MoO4, Triton-X 100 0.1%). HEPES and KCl were purchased from AppliChem, Darmstadt, Germany. KOH and MgCl2 were obtained from VWR Chemicals, Darmstadt, Germany. Na2MoO4 was from Merck, Darmstadt, Germany. Triton-X 100 was purchased from Serva, Heidelberg, Germany.
For C. albicans Sba1 competition experiments for HSP90-mNeonGreen–Sba1-mScarlet-I binding, 1 µM HSP90-mNeonGreen and 1 µM Sba1-mScarlet-I were incubated with varying concentrations of Sba1 in a range of 0–25,000 nM (lowest non-zero concentration 12 nM) in reaction buffer containing 5 mM ATP. The experiment was performed twice in nonaplicates. For human p23 competition experiments for HSP90α-mNeonGreen–p23-mScarlet-I binding, 1 µM HSP90α-mNeonGreen and 1 µM p23-mScarlet-I were incubated with varying concentrations of p23 in a range of 0–50 000 nM (lowest non-zero concentration 23 nM) in reaction buffer containing 5 mM ATP. The experiment was performed twice in hexaplicates. […] The experiment was performed thrice in triplicates. […] The IC50,rel values were calculated using the equation log (inhibitor) vs. response-variable slope (four parameters) in GraphPad Prism 5. Ki values for inhibition of HSP90-mNeonGreen–Sba1-mScarlet-I/p23-mScarlet-I binding by non-labeled Sba1/p23 were calculated with One Site—Fit Ki in GraphPad Prism 5. […] The EC50,rel values were calculated using the log (agonist) vs. response-variable slope (four parameters) equation in GraphPad Prism 5.

Experiment [3] has as its target T3, C. albicans HSP90-mNeonGreen–Sba1-mScarlet-I binding (Candida albicans, UniProt P46598, E36A).
T3 construct: made in house; host or cells: E. coli BL21(DE3)
On the procedure: as §1, §2
All experiments were carried out in reaction buffer (40 mM HEPES/KOH pH 7.5, 20 mM KCl, 5 mM MgCl2, 20 mM Na2MoO4, Triton-X 100 0.1%). HEPES and KCl were purchased from AppliChem, Darmstadt, Germany. […]

The next experiment concerns the target HSP90. Conditions: cited from earlier work.
Experiment [4] deals with T4, C. albicans HSP90–Sba1 binding (Candida albicans, UniProt P46598).
T4 construct: made in house; host or cells: E. coli BL21(DE3)
T4 sequence (P46598 whole entry): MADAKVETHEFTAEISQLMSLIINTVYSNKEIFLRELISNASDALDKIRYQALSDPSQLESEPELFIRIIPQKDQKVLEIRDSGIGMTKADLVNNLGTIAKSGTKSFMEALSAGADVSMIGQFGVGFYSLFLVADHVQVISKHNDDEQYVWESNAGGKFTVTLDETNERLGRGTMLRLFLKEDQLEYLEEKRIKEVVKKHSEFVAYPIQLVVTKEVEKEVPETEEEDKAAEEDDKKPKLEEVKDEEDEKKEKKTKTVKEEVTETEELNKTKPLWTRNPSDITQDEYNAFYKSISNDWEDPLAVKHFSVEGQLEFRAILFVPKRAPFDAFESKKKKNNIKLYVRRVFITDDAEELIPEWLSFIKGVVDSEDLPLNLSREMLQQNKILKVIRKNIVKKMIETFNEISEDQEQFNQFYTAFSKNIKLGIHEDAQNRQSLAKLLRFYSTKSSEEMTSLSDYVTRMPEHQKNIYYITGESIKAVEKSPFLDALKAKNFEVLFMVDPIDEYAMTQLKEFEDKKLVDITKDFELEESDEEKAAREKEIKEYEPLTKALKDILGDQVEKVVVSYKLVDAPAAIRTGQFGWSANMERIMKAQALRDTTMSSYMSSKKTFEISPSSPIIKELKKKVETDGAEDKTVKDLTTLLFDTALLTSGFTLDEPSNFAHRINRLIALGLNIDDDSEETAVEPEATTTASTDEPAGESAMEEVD
The experiment is described as follows: FRET inhibitor screening assay, C. albicans HSP90-Sba1 binding. Conditions: 10 or 100 µM (Sba1 20 µM), triplicates, 3 mM ATP, 1% DMSO, 15 min 30 °C.
Source text: We used the Z′ factor (Z′) to optimize the FRET assays for screening purposes. Z′ represents a simple statistical parameter for the quality assessment and optimization of HTS assays and screening assays in general. It is a measure that determines the degree of signal separation between binding and non-binding data sets. Calculation of the Z′ factor is based on the standard deviation of the individual data sets as well as their general signal separation. Values ≥ 0.5 can be classified as excellent for screening purposes. […] When the fluorescent fusion proteins of HSP90 and co-chaperones bind to each other, FRET occurs between donor and acceptor fluorophores, and the sensitized emission (EmFRET) signal increases. Consequently, the fluorescence intensity of the donor decreases (FLDD). […] To obtain an informative Z′ value, we calculated it based on at least three independent experiments amounting to 144 samples for both binding and non-binding control data sets (Figure 4B,E). […] We defined the ‘hit threshold’ as a decrease in readout signal of more than 3 standard deviations (SDs) from the mean signal of the binding control. This constitutes a common threshold for hit identification in HTS campaigns.
as §2
For screening for the identification of ATP-competitive C. albicans HSP90 and HSP90-Sba1 binding inhibitors, 10 µL of HSP90-mNeonGreen ([…]) in HEPES buffer (40 mM HEPES/KOH pH 7.5, 20 mM KCl) was mixed with 10 µL of 200 µM compound solution in 2x reaction buffer (40 mM HEPES/KOH pH 7.5, 20 mM KCl, 10 mM MgCl2, 40 mM Na2MoO4, Triton-X 100 0.2%), 6 mM ATP, 2% DMSO, resulting […] Samples for binding control (3 mM ATP, final concentration) and non-binding control (no ATP) were prepared in the same manner without compounds. The samples were incubated for 15 min at 30 °C prior to measurement.

The next experiment concerns HSP90 - Sba1/p23 binding. Conditions: according to literature; cited from earlier work.
For the next experiment, the target named is T5, human HSP90α–p23 binding (Homo sapiens, UniProt P07900).
T5 construct: made in house; host or cells: E. coli Rosetta2(DE3) pLysS
The experiment is described as follows: FRET inhibitor screening assay, human HSP90α-p23 binding. Conditions: 10 or 100 µM, triplicates, 3 mM ATP, 1% DMSO, 15 min 37 °C. The source says:
We used the Z′ factor (Z′) to optimize the FRET assays for screening purposes. Z′ represents a simple statistical parameter for the quality assessment and optimization of HTS assays and screening assays in general. It is a measure that determines the degree of signal separation between binding and non-binding data sets. Calculation of the Z′ factor is based on the standard deviation of the individual data sets as well as their general signal separation. Values ≥ 0.5 can be classified as excellent for screening purposes. […] When the fluorescent fusion proteins of HSP90 and co-chaperones bind to each other, FRET occurs between donor and acceptor fluorophores, and the sensitized emission (EmFRET) signal increases. Consequently, the fluorescence intensity of the donor decreases (FLDD). […] We defined the ‘hit threshold’ as a decrease in readout signal of more than 3 standard deviations (SDs) from the mean signal of the binding control. This constitutes a common threshold for hit identification in HTS campaigns.
The excitation and emission bandwidths were set to 9 and 20 nm, respectively. Experiments for the determination of the equilibrium dissociation constants were performed with a filter-based microplate reader Infinite F200Pro (Tecan, Männedorf, Switzerland). […] The correction factors x and y were calculated as follows:(2) x=FLDA/FLDD for samples containing only the donor fluorophore or fluorescent fusion proteins with mNeonGreen and (3) y=FLDA/FLAA for samples containing only the acceptor fluorophore or fluorescent fusion proteins with mScarlet-I in the same concentration as samples containing both the donor and acceptor.
For screening for the identification of ATP-competitive C. albicans HSP90 and HSP90-Sba1 binding inhibitors, 10 µL of HSP90-mNeonGreen (2 µM) and Sba1-mScarlet-I (4 µM) in HEPES buffer (40 mM HEPES/KOH pH 7.5, 20 mM KCl) was mixed with 10 µL of 200 µM compound solution in 2x reaction buffer (40 mM HEPES/KOH pH 7.5, 20 mM KCl, 10 mM MgCl2, 40 mM Na2MoO4, Triton-X 100 0.2%), 6 mM ATP, 2% DMSO, resulting ultimately in constant HSP90-mNeonGreen concentrations of 1 µM and Sba1-mScarlet-I 2 µM in reaction buffer. Samples for binding control (3 mM ATP, final concentration) and non-binding control (no ATP) were prepared in the same manner without compounds. The samples were incubated for 15 min at 30 °C prior to measurement. The assay for the human HSP90α–p23 binding inhibitor identification was performed analogously, with the exception that samples were incubated for 15 min at 37 °C prior to measurement. Since binding samples show both a high EmFRET as well as a reduction in donor emission (FLDD), we calculated the quotient (EmFRET/FLDD) to derive an improved signal separation and robustness. The nucleoside-mimetics library was obtained from Enamine (catalog No. NML-320-X-20, Enamine Ltd., Kyiv, Ukraine). Z′ and Z factors were calculated based on Zhang et al..

“Also recorded” adds a separate entry of the source.

T3 sequence (P46598 whole entry, stated change not applied): as the sequence (P46598 whole entry) above
T1 sequence (P46598 whole entry): as the sequence (P46598 whole entry) above

Regarding `Nc1ncnc2c1ncn2[C@@H]1O[C@H](COP(=O)(O)OP(=O)(O)NP(=O)(O)O)[C@@H](O)[C@H]1O` [AMP-PNP], the figures for the Kd (in [1]; on human HSP90β; on human HSP90β–p23 complex) were 200 ± 70 µM, 148 ± 12 µM and 39 ± 12 µM, respectively.
Turning to `Nc1ncnc2c1ncn2[C@@H]1O[C@H](COP(=O)(O)OP(=O)(O)OP(=O)(O)O)[C@@H](O)[C@H]1O` [ATP], the “concentration at which maximum binding was reached” value is ~ 3 mM in [2] (1 µM HSP90αE47A-mNeonGreen, 2 µM p23-mScarlet-I) and ~ 3 mM in experiment [3] (1 µM HSP90E36A-mNeonGreen, 2 µM Sba1-mScarlet-I). Moreover, the concentration for a half-maximal effect (EC50) in experiment [2] (1 µM donor, 2 µM acceptor, read-out: EC50,rel, influence on HSP90αE47A-mNeonGreen–p23-mScarlet-I binding) was 210 ± 30 µM; in experiment [3] (1 µM donor, 2 µM acceptor, ATP 0–12,500 µM, read-out: EC50,rel, influence on HSP90E36A-mNeonGreen–Sba1-mScarlet-I binding) it was 220 ± 40 µM.
On to `COc1c(C)cnc(Cn2cnc3c(Cl)nc(N)nc32)c1C` [BIIB021], for which the Ki at HSP90 (Table S1, read-out: Ki (printed in the Kd value column)) is […]. The “hit identification (EmFRET/FLDD decrease of more than 3 SDs from binding control mean)” value in experiment [4] was “reliably identified as disrupting HSP90-Sba1 binding; also recorded: reliably identified as hits”. The “Influence on p23/Sba1 binding” value with HSP90 - Sba1/p23 binding is on record as “Yes”.
For `CC1(C)CC(=O)c2c(C(F)(F)F)nn(-c3ccc(C(N)=O)c(N[C@H]4CC[C@H](OC(=O)CN)CC4)c3)c2C1` [SNX-5422], on HSP90 (Table S1, according to literature), the dissociation constant (Kd) is 0.016 µM. For the same compound, the “hit identification (EmFRET/FLDD decrease of more than 3 SDs from binding control mean)” value is “reliably identified as hits” at human HSP90α–p23 binding and “reliably identified as disrupting HSP90-Sba1 binding; also recorded: reliably identified as hits” in experiment [4]. The “Influence on p23/Sba1 binding” value with HSP90 - Sba1/p23 binding is “Yes”.

What is called Kd is the constant that tells how readily two partners part at equilibrium. As usually defined, the EC50 is the concentration at which the effect is half-maximal. Broadly, the Ki is the dissociation constant of the complex between target and ligand, obtained from inhibition or displacement.
